We go through 15 cell lines from the supplement of paper PMC9663587.
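Note: breast cancer and non-malignant breast epithelial cell lines, Deep Dye Drop or Dye Drop imaging, nine half-log doses, GR normalized to time-zero plates and DMSO-only controls.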

Compound in the first assay: CC[C@@H]1C(=O)N(C)c2cnc(Nc3ccc(C(=O)N[C@H]4CC[C@H](N5CCN(CC6CC6)CC5)CC4)cc3OC)nc2N1C(C)C [Volasertib/BI6727]
Take CAL851: the “GR50, 72 h” value was 0.00327 µM.
Turning to HCC1187, the “GR50, 72 h” value was 0.0078 µM.
Still for that read-out and setting: then HCC1428, with 0.0187 µM.
Still for that read-out and setting: the figure for HCC1500 is 0.0116 µM; for HCC1954 it is 0.00659 µM.
For MDAMB157, the “GR50, 72 h” value is 0.00692 µM.
For the cell line MDAMB175VII, the “GR50, 72 h” value turned out to be 0.0114 µM.
As to MDAMB330, the “GR50, 72 h” value was determined as 0.0032 µM.
In the case of MDAMB361, the “GR50, 72 h” value turned out to be 0.00352 µM.
Still for that read-out and setting: then MDAMB453, with 0.00726 µM; and PDX1328, with 0.00437 µM; and SUM185PE, with 0.0238 µM.
For the cell line SUM190PT, the “GR50, 72 h” value was determined as 0.0086 µM.
UACC812: the “GR50, 72 h” value was determined as 0.00975 µM.
For the cell line UACC893, the “GR50, 72 h” value was 0.00357 µM.

Compound in a further assay: C[C@@H]1COCCN1c1cc(C2([S@](C)(=N)=O)CC2)nc(-c2cc[nH]c3nccc2-3)n1 [AZD6738]
Turning to CAL851, the “GR50, 72 h” value was found to be 4.62 µM.
Same read-out and setting: the figure for HCC1187 is 1.21 µM.
Consider HCC1954, for which the “GR50, 72 h” value amounted to 5.43 µM.
Take MDAMB175VII: the “GR50, 72 h” value worked out at 8.53 µM.
With MDAMB330, the “GR50, 72 h” value came out at 8.42 µM.
On the same count and under the same terms, then MDAMB361, with 4.79 µM.
Still for that read-out and setting: then MDAMB453, with 4.74 µM; and SUM185PE, with > 10 µM.
The same measure, in the same setting: then SUM190PT, with 4.09 µM; and UACC812, with 5.82 µM; and UACC893, with 9.33 µM.

Compound in the next assay: CC(C)n1nc(-c2ccc3oc(N)nc3c2)c2c(N)ncnc21 [INK128/MLN0128]
Consider CAL851, for which the “GR50, 72 h” value amounted to 0.00883 µM.
As to HCC1187, the “GR50, 72 h” value was 0.0661 µM.
On to HCC1428, for which the “GR50, 72 h” value is 0.00593 µM.
The same measure, in the same setting: then HCC1500, with 0.000784 µM; and HCC1954, with 0.0142 µM; and MDAMB157, with 0.0318 µM.
On to MDAMB175VII, for which the “GR50, 72 h” value is 0.00349 µM.
As to MDAMB330, the “GR50, 72 h” value is 0.00601 µM.
Same read-out and setting: then MDAMB361, with 0.00362 µM; and MDAMB453, with 0.00996 µM; and PDX1328, with 0.00569 µM.
For SUM185PE, the “GR50, 72 h” value was 0.00558 µM.
Same read-out and setting: the figure for SUM190PT is 0.0134 µM.
Same read-out and setting: the figure for UACC812 is 0.0021 µM; for UACC893 it is 0.00694 µM.

Compound in a further assay: O=C1NC(=O)[C@@H](c2cn3c4c(cccc24)CCC3)[C@@H]1c1c[nH]c2ccccc12 [Tivantinib/ARQ197]
In the case of CAL851, the “GR50, 72 h” value was determined as 0.198 µM.
Same read-out and setting: then HCC1187, with 0.0418 µM; and HCC1428, with 0.252 µM; and HCC1500, with 0.115 µM.
Still for that read-out and setting: the figure for HCC1954 is 0.167 µM; for MDAMB157 it is 0.777 µM; for MDAMB175VII it is 0.267 µM.
On the same count and under the same terms, the figure for MDAMB330 is 0.661 µM; for MDAMB361 it is 0.342 µM.
With MDAMB453, the “GR50, 72 h” value was 0.201 µM.
For the cell line PDX1328, the “GR50, 72 h” value was found to be 0.239 µM.
In the case of SUM185PE, the “GR50, 72 h” value was found to be 0.784 µM.
Still for that read-out and setting: the figure for SUM190PT is 0.0433 µM; for UACC812 it is 0.175 µM; for UACC893 it is 0.297 µM.

Compound in a further assay: NC(=O)Nc1cc(-c2cccc(F)c2)sc1C(=O)N[C@H]1CCCNC1 [AZD7762]
For CAL851, the “GR50, 72 h” value turned out to be 0.0421 µM.
Still for that read-out and setting: the figure for HCC1187 is 0.0508 µM.
On the same count and under the same terms, the figure for HCC1428 is 0.4 µM.
Take HCC1500: the “GR50, 72 h” value came to 0.0356 µM.
On the same count and under the same terms, the figure for HCC1954 is 0.127 µM; for MDAMB157 it is 0.0154 µM.
Still for that read-out and setting: then MDAMB175VII, with 0.0769 µM; and MDAMB330, with 0.0449 µM; and MDAMB361, with 0.00768 µM.
Still for that read-out and setting: then MDAMB453, with 0.0116 µM; and PDX1328, with 0.0284 µM; and SUM185PE, with 0.0985 µM.
SUM190PT: the “GR50, 72 h” value turned out to be 0.0612 µM.
Take UACC812: the “GR50, 72 h” value stood at 0.00748 µM.
Take UACC893: the “GR50, 72 h” value is 0.299 µM.

Compound in a further assay: CN1CCN(C(=O)c2ccc3cc(CCNc4ncnc5ccc(C#N)cc45)ccc3c2)CC1 [senexin b]
For CAL851, the “GR50, 72 h” value was > 10 µM.
In the case of HCC1187, the “GR50, 72 h” value is > 10 µM.
On the same count and under the same terms, the figure for MDAMB175VII is 0.387 µM; for MDAMB361 it is 1.62 µM; for MDAMB453 it is 3.93 µM.
The same measure, in the same setting: then PDX1328, with > 10 µM; and UACC893, with > 10 µM.

Compound in the next assay: Cc1nc(Nc2ncc(C(=O)Nc3c(C)cccc3Cl)s2)cc(N2CCN(CCO)CC2)n1 [Dasatinib]
For CAL851, the “GR50, 72 h” value is 0.105 µM.
Same read-out and setting: the figure for HCC1187 is 0.0343 µM; for HCC1428 it is > 10 µM; for HCC1500 it is 0.00348 µM.
For HCC1954, the “GR50, 72 h” value was found to be 1.86 µM.
On the same count and under the same terms, the figure for MDAMB157 is 0.0605 µM.
On the same count and under the same terms, the figure for MDAMB175VII is 0.0162 µM; for MDAMB330 it is > 10 µM.
On the same count and under the same terms, the figure for MDAMB361 is 0.268 µM; for MDAMB453 it is > 10 µM; for PDX1328 it is 0.0279 µM.
Take SUM185PE: the “GR50, 72 h” value was 0.0196 µM.
The same measure, in the same setting: the figure for SUM190PT is 0.212 µM; for UACC812 it is 0.00102 µM; for UACC893 it is > 10 µM.

Compound in the next assay: CN(C)C/C=C/C(=O)Nc1ccc(C(=O)N2CCC[C@@H](Nc3ncc(Cl)c(-c4c[nH]c5ccccc45)n3)C2)cc1 [THZ531]
For the cell line CAL851, the “GR50, 72 h” value was 0.0715 µM.
The same measure, in the same setting: the figure for HCC1187 is 0.0529 µM; for HCC1954 it is 0.362 µM.
On the same count and under the same terms, the figure for MDAMB175VII is 0.0409 µM; for MDAMB330 it is 0.0247 µM.
The same measure, in the same setting: then MDAMB361, with 0.0273 µM; and MDAMB453, with 0.0236 µM.
On to PDX1328, for which the “GR50, 72 h” value came out at 0.0399 µM.
As for SUM185PE, the “GR50, 72 h” value worked out at 0.136 µM.
As for SUM190PT, the “GR50, 72 h” value stood at 0.0528 µM.
Regarding UACC812, the “GR50, 72 h” value was > 1 µM.
Still for that read-out and setting: then UACC893, with 0.0414 µM.

Compound in another assay: COc1cc2nccc(Oc3ccc(NC(=O)C4(C(=O)Nc5ccc(F)cc5)CC4)cc3)c2cc1OC [Cabozantinib]
Turning to CAL851, the “GR50, 72 h” value came out at 5.34 µM.
Regarding HCC1428, the “GR50, 72 h” value was > 10 µM.
On the same count and under the same terms, the figure for HCC1500 is 4.67 µM; for HCC1954 it is > 10 µM; for MDAMB157 it is 2.78 µM.
With MDAMB175VII, the “GR50, 72 h” value came out at 7.74 µM.
Take MDAMB330: the “GR50, 72 h” value was > 10 µM.
